US7902225B2, “Mycobacterial inhibitors” (Janssen Pharmaceutica NV, priority 2005, dated 2011)

System: M. Smegmatis ATCC607
Experiment: In-vitro anti-bacterial activity against strain M. smegmatis ATCC607 (growth inhibition, Alamar Blue fluorescence)
Format: cell-based
Conditions: 48 hours at 37° C.
Procedure: D.2. In-vitro Method for Testing Compounds for Anti-bacterial Activity Against Strain M. Smegmatis ATCC607. Flat-bottom, sterile 96well plastic microtiter plates were filled with 180 μl of sterile deionized water, supplemented with 0.25% BSA. Subsequently, stock solutions (7.8× final test concentration) of compounds were added in 45 μl volumes to a series of duplicate wells in column 2 so as to allow evaluation of their effects on bacterial growth. Serial five-fold dilutions (45 μl in 180 μl) were made directly in the microtiter plates from column 2 to 11 using a customised robot system (Zymark Corp., Hopkinton, Mass.). Pipette tips were changed after every 3 dilutions to minimize pipetting errors with high hydrophobic compounds. Untreated control samples with (column 1) and without (column 12) inoculum were included in each microtiter plate. Approximately 250 CFU per well of bacteria inoculum, in a volume of 100 μl in 2.8× Mueller-Hinton broth medium, was added to the rows […]. The same volume of broth medium without inoculum was added to column 12 in row A to H. The cultures were incubated at 37° C. for 48 hours in a humidified 5% CO2 atmosphere (incubator with open air valve and continuous ventilation). At the end of incubation, two days after inoculation, the bacterial growth was quantitated fluorometrically. Therefore Alamar Blue (10×) was added to all wells in a volume of 20 μl and plates were incubated for another 2 hours at […] The fluorescence was read in a computer-controlled fluorometer (Cytofluor, Biosearch) at an excitation wavelength of 530 nm and an emission wavelength of 590 nm (gain 30). The % growth inhibition achieved by the compounds was calculated according to standard methods. The pIC50 was defined as the 50% inhibitory concentration for bacterial growth.

Compound	M. smegmatis (pIC50)
CN(C)CCC(O)(c1cccc2ccccc12)c1cc(Br)cc2cc(Cc3ccccc3)c(N3CCC(Cc4ccccc4)CC3)nc12 (stereo not shown) [Compound 64]	5.2
CN(C)CCC(O)(c1ccccc1)c1cc(Br)cc2cc(Cc3ccccc3)c(N3CCN(C(=O)c4ccco4)CC3)nc12 (stereo not shown) [Compound 86]	5.7
CN(C)CCC(O)(c1ccccc1)c1cc(Br)cc2cc(Cc3ccccc3)c(-n3ccnn3)nc12 (stereo not shown) [Compound 65]	5.2
CC1CCN(c2nc3c(C(O)(CCN(C)C)c4ccccc4)cc(Br)cc3cc2Cc2ccccc2)CC1 (stereo not shown) [Compound 91]	5.3
CN(C)CCC(O)(c1ccccc1)c1cc(Br)cc2cc(Cc3ccccc3)c(-n3ccnc3)nc12 (stereo not shown) [Compound 59]	5.8
COCCCNc1nc2c(C(O)(CCN(C)C)c3ccccc3)cc(Br)cc2cc1Cc1ccccc1 (stereo not shown) [Compound 90]	5.5
COc1cc(-c2ccccc2)c2cc(C(O)(CCN(C)C)c3ccccc3)ccc2n1 (stereo not shown) [Compound 27]	5.2
CN(C)CCC(O)(c1ccccc1)c1cc(Br)cc2cc(Cc3ccccc3)c(-n3cncn3)nc12 (stereo not shown) [Compound 62]	5.3
CN(C)CCC(O)(c1cccc2ccccc12)c1cc(Br)cc2cc(Cc3ccccc3)c(N3CCN(Cc4ccc5c(c4)OCO5)CC3)nc12 (stereo not shown) [Compound 45]	6.6
CN(C)CCC(O)(c1cccc2ccccc12)c1cc(Br)cc2cc(Cc3ccccc3)c(N3CCN(O)CC3)nc12 (stereo not shown) [Compound 49]	6.1
CCCCNc1nc2c(C(O)(CCN(C)C)c3ccccc3)cc(Br)cc2cc1Cc1ccccc1 (stereo not shown) [Compound 93]	5.1
CN(C)CCC(O)(c1ccccc1)c1cc(Br)cc2cc(Cc3ccccc3)c(NCCCN3CCCC3=O)nc12 (stereo not shown) [Compound 92]	5.2
CN(C)CCC(O)(c1cccc2ccccc12)c1cc(Br)cc2cc(Cc3ccccc3)c(-n3ccnc3)nc12 (stereo not shown) [Compound 46]	6.6
CN(C)CCC(O)(c1ccccc1)c1cc2nc(N3CCN(C)CC3)c(Cc3ccccc3)cc2cc1Br (stereo not shown) [Compound 61]	5.3
CN(C)CCC(O)(c1cccc2ccccc12)c1cc(Br)cc2cc(-c3ccccc3)c(-n3cncn3)nc12 (stereo not shown) [Compound 56]	5.8
COc1nc2cccc(C(O)(CCN(C)C)c3c(F)cccc3F)c2cc1-c1ccccc1 (stereo not shown) [Compound 28]	5.1

Same assay, conditions: Mycolicibacterium smegmatis, 48 hours at 37° C., read-out: M. smegmatis (pIC50) (converted)

Compound	IC50 [nM]
CN(C)CCC(O)(Cc1c(Cc2ccccc2)c(N2CCCC2)nc2ccccc12)c1cc(F)cc(F)c1 (stereo not shown) [Compound 4]	251
CN(C)CCC(O)(c1ccccc1)c1cc2nc(N3CCN(Cc4ccc5c(c4)OCO5)CC3)c(Cc3ccccc3)cc2cc1Br (stereo not shown) [Compound 60]	2000
COc1nc2c(C(O)(CCN(C)C)c3cc(F)cc(F)c3)cc(-c3cccnc3)cc2cc1-c1ccccc1 (stereo not shown) [Compound 13]	398
COc1cc(-c2ccccc2)c2cc(C(O)(CCN(C)C)c3ccco3)ccc2n1 (stereo not shown) [Compound 29]	31600
CN(C)CCC(O)(c1cccc2ccccc12)c1cc(Br)cc2cc(Cc3ccccc3)c(N3CCN(C(c4ccccc4)c4ccccc4)CC3)nc12 (stereo not shown) [Compound 69]	39800
CN(C)CCC(O)(c1cc(F)cc(F)c1)c1ccc2nc(-c3cccnc3)cc(-c3ccccc3)c2c1 (stereo not shown) [Compound 8]	1580
CN(C)CCC(O)(Cc1c(Cc2ccccc2)c(-c2ccsc2)nc2ccccc12)c1cc(F)cc(F)c1 (stereo not shown) [Compound 40]	7940
COc1nc2cccc(C(O)(CCN(C)C)c3ccco3)c2cc1-c1ccccc1 (stereo not shown) [Compound 21]	31600
CN(C)CCC(O)(c1cccs1)c1cc(Br)cc2cc(Cc3ccccc3)c(-n3ccnc3)nc12 (stereo not shown) [Compound 53]	1260
CN(C)CCC(O)(c1cccc2ccccc12)c1cccc2nc(N3CCN(C)CC3)c(-c3ccccc3)cc12 (stereo not shown) [Compound 36]	10000
CN(C)CCC(O)(c1ccccc1)c1ccc2nc(-c3cccnc3)cc(-c3ccccc3)c2c1 (stereo not shown) [Compound 71]	1580
CC(=O)c1ccc(N2CCN(c3nc4c(C(O)(CCN(C)C)c5ccccc5)cc(Br)cc4cc3Cc3ccccc3)CC2)cc1 (stereo not shown) [Compound 82]	1580
CN(C)CCC(O)(c1ccccc1)c1cc(Br)cc2cc(-c3ccccc3)c(-n3cncn3)nc12 (stereo not shown) [Compound 66]	12600
CN(C)CCC(O)(c1ccco1)c1cc(Br)cc2cc(-c3ccccc3)c(-n3cncn3)nc12 (stereo not shown) [Compound 68]	31600
CN(C)CCC(O)(c1ccccc1)c1cc(Br)cc2cc(Cc3ccccc3)c(N3CCC(Cc4ccccc4)CC3)nc12 (stereo not shown) [Compound 84]	2000
CN(C)CCC(O)(c1cccc2ccccc12)c1cc(Br)cc2cc(Cc3ccccc3)c(N3CCN(Cc4ccccc4)CC3)nc12 (stereo not shown) [Compound 47]	398
CN(C)CCC(O)(c1ccccc1)c1cccc2nc(N3CCN(C)CC3)c(-c3ccccc3)cc12 (stereo not shown) [Compound 37]	79400
CN(C)CCC(O)(c1ccccc1)c1cc(Br)cc2cc(Cc3ccccc3)c(NCCCN3CCOCC3)nc12 (stereo not shown) [Compound 87]	2510
CN(C)CCC(O)(c1cc(F)cc(F)c1)c1cc(Br)cc2cc(-c3ccccc3)c(-n3ccnc3)nc12 (stereo not shown) [Compound 44]	1260
CN(C)CCC(O)(Cc1c(Cc2ccccc2)c(-c2ccccc2)nc2ccccc12)c1cc(F)cc(F)c1 (stereo not shown) [Compound 42]	39800
CN(C)CCC(O)(Cc1c(Cc2ccccc2)c(N2CCOCC2)nc2ccccc12)c1cc(F)cc(F)c1 (stereo not shown) [Compound 31]	1260
CN(C)CCC(O)(c1ccccc1)c1cc(Br)cc2cc(Cc3ccccc3)c(N(C)C)nc12 (stereo not shown) [Compound 78]	1580
CN(C)CCC(O)(c1ccccc1)c1cc(Br)cc2cc(Cc3ccccc3)c(N3CCC(C(N)=O)CC3)nc12 (stereo not shown) [Compound 94]	7940
CN(C)CCC(O)(c1cccc2ccccc12)c1cc(Br)cc2cc(Cc3ccccc3)c(N3CCN(C(=O)c4ccco4)CC3)nc12 (stereo not shown) [Compound 54]	1260

Compound	IC50 [nM]
CN(C)CCC(O)(Cc1c(-c2ccccc2)c(-c2ccco2)nc2ccccc12)c1cc(F)cc(F)c1 (stereo not shown) [Compound 39]	1260
CN(C)CCC(O)(c1ccccc1)c1cc(Br)cc2cc(Cc3ccccc3)c(NCCC(c3ccccc3)c3ccccc3)nc12 (stereo not shown) [Compound 88]	2510
COc1nc2cccc(C(O)(CCN(C)C)c3cccc4ccccc34)c2cc1-c1ccccc1 (stereo not shown) [Compound 18]	1580
COc1nc2cccc(C(O)(CCN(C)C)c3ccccc3)c2cc1-c1ccccc1 (stereo not shown) [Compound 20]	31600
CN(C)CCC(O)(c1ccc2nc(-c3cccnc3)cc(-c3ccccc3)c2c1)c1ccco1 (stereo not shown) [Compound 72]	6310
Cc1cc(-c2ccccc2)c2cc(C(O)(CCN(C)C)c3ccco3)ccc2n1 (stereo not shown) [Compound 6]	31600
COc1nc2c(C(O)(CCN(C)C)c3cccs3)cc(Br)cc2cc1Cc1ccccc1 (stereo not shown) [Compound 15]	7940
CN(C)CCC(O)(c1cccs1)c1cc(Br)cc2cc(Cc3ccccc3)c(N3CCN(C)CC3)nc12 (stereo not shown) [Compound 35]	1580
COc1nc2ccc(C(O)(CCN(C)C)c3cc(F)cc(F)c3)cc2cc1Cc1ccc(C)cc1 (stereo not shown) [Compound 2]	1260
CN(C)CCC(O)(c1cccc2ccccc12)c1cc(Br)cc2cc(Cc3ccccc3)c(N3CCOCC3)nc12 (stereo not shown) [Compound 51]	1000
CN(C)CCC(O)(c1cc(F)cc(F)c1)c1cccc2nc(N3CCN(C)CC3)c(-c3ccccc3)cc12 (stereo not shown) [Compound 32]	10000
CN(C)CCC(O)(c1ccccc1)c1cc(Br)cc2cc(Cc3ccccc3)c(N(C)CCc3ccccc3)nc12 (stereo not shown) [Compound 83]	1580
CN(C)CCC(O)(c1ccccc1)c1cc(Br)cc2cc(Cc3ccccc3)c(N3CCN(c4ncccn4)CC3)nc12 (stereo not shown) [Compound 89]	2510
CN(C)CCC(O)(c1cc(F)cc(F)c1)c1cccc2nc(-n3cncn3)c(-c3ccccc3)cc12 (stereo not shown) [Compound 33]	31600
Cc1cc(-c2ccccc2)c2cc(C(O)(CCN(C)C)c3ccccc3)ccc2n1 (stereo not shown) [Compound 43]	12600
COc1nc2c(C(O)(CCN(C)C)c3cccs3)cc(-c3cccnc3)cc2cc1Cc1ccccc1 (stereo not shown) [Compound 77]	12600
COc1nc2c(C(O)(CCN(C)C)c3cc(F)cc(F)c3)cc(Br)cc2cc1-c1ccccc1 (stereo not shown) [Compound 12]	1580
CN(C)CCC(O)(c1ccccc1)c1cc2nc(N(C)C)c(Cc3ccccc3)cc2cc1Br (stereo not shown) [Compound 67]	20000
CN(C)CCC(O)(c1ccco1)c1cc(Br)cc2cc(-c3ccccc3)c(-n3ccnc3)nc12 (stereo not shown) [Compound 63]	6310
CN(C)CCC(O)(c1cccs1)c1cc(Br)cc2cc(Cc3ccccc3)c(N(C)C)nc12 (stereo not shown) [Compound 73]	1580
COc1nc2cccc(C(O)(CCN(C)C)c3cc(F)cc(F)c3)c2cc1-c1ccccc1 (stereo not shown) [Compound 1]	1260
CN(C)CCC(O)(c1ccccc1)c1cc(Br)cc2cc(Cc3ccccc3)c(N3CC=CCC3)nc12 (stereo not shown) [Compound 81]	1260
COc1nc2cccc(C(O)(CCN(C)C)c3ccc4ccccc4c3)c2cc1-c1ccccc1 (stereo not shown) [Compound 19]	7940
CN(C)CCC(O)(c1cccc2ccccc12)c1cc(Br)cc2cc(Cc3ccccc3)c(N3CCc4ccccc4C3)nc12 (stereo not shown) [Compound 50]	794
